Results taken from patent US20190125735A1, “INHIBITION OF P38 MAPK FOR THE TREATMENT OF CANCER” (Board of Regents, The University of Texas System, priority 2015, published 2019).

Key:
[1] = test system: HMLE-Snail and HMLE-Twist cells; assay: Invadopodia formation, degradation of FITC-conjugated gelatin; format: cell-based, human; details: within 16 h, vs vehicle-treated cells
Procedure: FIGS. 15A-15L: p38 inhibition compromises the acquisition and maintenance of EMT and stem cell properties in vitro. […] Cells were harvested and the corresponding lysates were analyzed by immunoblotting for FOXC2, E-cadherin and mesenchymal markers. β-actin was used as a loading control. […] Cells were harvested at the indicated timepoints and the corresponding lysates were analyzed by immunoblotting for FOXC2, E-cadherin and mesenchymal markers. β-actin was used as a loading control. […] One thousand cells were seeded per well in ultra-low attachment plates and cultured for 7-10 days. Spheres with a diameter greater than 75 μm were counted. The data are reported as the number of spheres formed/1000 seeded cells±SEM. […] Data are presented as mean±SEM. […] The corresponding lysates were analyzed by immunoblotting for FOXC2, E-cadherin and mesenchymal markers. β-actin was used as a loading control. (F) The sphere-forming efficiency of 4-OHT-treated HMLE-Twist-ER cells, transduced with control shRNA (shControl) or p38 shRNA (shp38), was determined. […] (H) The sphere-forming efficiency of the indicated cells was determined in the presence of vehicle or SB203580. […] (J) The relative wound closure by the indicated cells, treated with vehicle or SB203580, was measured by image analysis and represented in a graphical format. […] Degradation of FITC-gelatin was quantified by image analysis. n=150 cells/sample. […]

[2] = test system: BCR-ABL+ mouse ALL cells; details: MSC co-culture
Procedure: To measure cell proliferation, co-cultures of MSCs and luciferase-labeled leukemic cells were mixed with D-Luciferin (Biosynth, Itasca, Ill.) to a final concentration of 0.5 mg/mL. Samples were incubated at room temperature for 1 minute and were imaged with the IVIS Lumina imaging system (PerkinElmer, Waltham, Mass.).

[3] = test system: MDA-MB-231 cells; assay: Experimental metastasis model, MDA-MB-231 cells via tail vein of NOD/SCID mice; format: in vivo, mouse; details: daily injection beginning 48 h post-implantation
Description: Since many breast cancer patients harbor occult micrometastases, at the time of diagnosis, and metastasis is often attributed to the systemic dissemination of tumor cells before or during surgical resection of the primary tumor (Pantel et al., 1999; Fehm et al., 2008), it was examined whether p38 inhibition could also prevent colonization and progression to macrometastasis. For this, an experimental metastasis model was employed, which circumvents the early steps of the metastatic cascade. Luciferase-labeled MDA-MB-231 cells were injected via the tail vein of NOD/SCID mice, and the emergence of lung metastases were monitored using bioluminescence. […] To eliminate the possibility of “off-target” effects, mice were intravenously injected with MDA-MB-231 cells expressing either control shRNA or p38 shRNA.
NOD/SCID and BALB/c mice were purchased from the Jackson Laboratory (Bar Harbor, Me., USA). […] Mice were assessed weekly for tumor growth and metastasis via subcutaneous injection of D-Luciferin (150 mg/kg; Caliper LifeSciences, Hopkinton, Mass., USA) and bioluminescent imaging (IVIS imaging system 200 series; Xenogen Corporation, PerkinElmer, Waltham, Mass., USA). Primary tumor size was measured with a caliper as the product of two perpendicular diameters (mm^2). […]

[4] = test system: Foxc2; assay: Foxc2/FOXC2 protein immunoblotting in 4T1 cells; format: cell-based, mouse
[5] = test system: HMLE-Snail-ER cells; assay: 4-OHT inducible EMT in HMLE-Snail-ER cells, immunoblotting; format: cell-based, human; details: HMLE-Snail-ER concurrently exposed to 4-OHT and SB203580
Procedure: To ascertain whether inhibiting p38 impedes the initiation of EMT, two dynamic models of EMT induction were utilized. First, MCF10A immortalized human mammary epithelial cells were treated with TGFβ1 which elicits EMT. […] Second, an inducible EMT system was used wherein a fusion protein, comprising the EMT-inducing transcription factors Snail or Twist and the estrogen-binding domain of the estrogen receptor (ER), is stably expressed in epithelial HMLE cells (HMLE-Snail-ER, HMLE-Twist-ER). Addition of the ER-ligand tamoxifen (4-OHT) promotes nuclear translocation of the Snail-ER and Twist-ER proteins and elicits EMT. […] Similarly, p38 shRNA abolished the capacity of HMLE-Twist-ER cells to undergo EMT (FIG. 4E, compare lanes 4 to 8) and to form spheres (FIG. 16F) in response to 4-OHT treatment.
Immortalized human mammary epithelial (HMLE) cells expressing empty vector (pWZL), Snail, Twist, Goosecoid (GSC), or an activated form of TGFβ1, V12H-Ras-transformed HMLE (HMLER) and HMLER-FOXC2 cells were maintained as previously described (Elenbaas et al., 2001) For 4-hydroxy-tamoxifen (4-OHT) treatment, HMLE-Snail-ER or HMLE-Twist-ER cells were exposed to 20 nM 4-OHT for the indicated number of days. MCF7, MDA-MB-231 and SUM159 human breast cancer cells and the 4T1 mouse mammary carcinoma cells were cultured as described. […]

Question: How did the “Degradation of underlying extracellular matrix (FITC-gelatin)” value [1] turn out when `C[S+]([O-])c1ccc(-c2nc(-c3ccc(F)cc3)c(-c3ccncc3)[nH]2)cc1` (centres unmarked) [SB203580, 4-(4-Fluorophenyl)-2-(4-methylsulfinylphenyl)-5-(4-pyridyl) 1H-imidazole] was run?
Answer: failed to do so to the same degree

Question: What about the “Proliferation of leukemic cells” value [2] of the same compound?
Answer: did not affect proliferation or apoptosis of leukemic cells

Question: What about the Event-free survival [3] of the same compound?
Answer: extended event-free survival

Question: What about the “Metastatic burden (lung)” value [3] of the same compound?
Answer: significantly reduced the metastatic burden

Question: And the “Phosphomimetic FOXC2(S367E) levels” value ([4]; 4T1-FOXC2(S367E) cells)?
Answer: remained unaltered

Question: And the “Endogenous Foxc2 protein levels” value ([4]; 4T1 cells, 24 h)?
Answer: significant reduction of endogenous Foxc2 protein levels

Question: What about the “Endogenous Foxc2 protein levels” value ([4]; vector-transduced 4T1 cells) of the same compound?
Answer: abolished endogenous Foxc2 protein levels

Question: What about the “EMT and FOXC2 upregulation” value [5] of the same compound?
Answer: failed to undergo EMT or upregulate FOXC2
